A short description of one data set: water solubility. The class given is physicochemical. The conditions noted are these: particles having mean diameter D[4,3] higher than 85 μm.
Data set [1] is described as follows: hygroscopicity / absorption of atmospheric humidity (water content by Karl-Fischer). Type of data set: physicochemical. The conditions noted are these: particles having mean diameter D[4,3] higher than 85 μm (150 μm vs known 50 μm sample, 25° C., 50% relative humidity, FIG. 2). How it is done:
The samples water content was determined by the known Karl—Fischer technique. “Approximatively” and “about” herein mean around ±10% of the indicated value.

For data set [2] the following is noted: cited from earlier work.
For data set [3] the following is noted: cited from earlier work. This is another data set of the same source.
The conditions of data set [4]: reported by EP 965 343; cited from earlier work.
The conditions of data set [5]: particles having diameter lower than or equal to 85 μm, aqueous solutions at physiological pH, EP 965 343; cited from earlier work.

Like-named read-outs stand apart in the source and are kept apart here.

On to `Cl.O=C1Cc2cc(CCN3CCN(c4nsc5ccccc45)CC3)c(Cl)cc2N1` [anhydrous ziprasidone hydrochloride], for which, in “water solubility”, the water solubility result is “substantially unchanged”. Further, the “resistance to absorption of atmospheric humidity” value in data set [1] (listed as Anhydrous ziprasidone hydrochloride) is “higher resistance to the absorption of atmospheric humidity”; in data set [1] (hydrochloride), “improved resistance to atmospheric humidity”. Moreover, the hygroscopicity entry in data set [2] (exposed to air, spontaneously converts to the hydrate form) is listed as “highly hygroscopic”; in data set [2] (particles with diameter lower than or equal to 85 μm), “high hygroscopicity”.
In the case of `Cl.O=C1Cc2cc(CCN3CCN(c4nsc5ccccc45)CC3)c(Cl)cc2N1` [ziprasidone hydrochloride, 5-(2-(4-(1,2-benzisothiazol-3-yl)-1-piperazinyl)-ethyl)-6-chloro-1,3-dihydro-2H-indol-2-one hydrochloride], in data set [3], the “permeability through biological membranes” value is reported as “high permeability”. In data set [4], the water solubility result was “sparingly water-soluble”. The “amount of the compound that dissolves within 45 minutes” value in data set [5] is “at least 70%”.

The record behind these values is patent publication US7563794B2, “Ziprasidone free from colored impurities and a process for its preparation” (Dipharma Francis S.r.l., priority 2005, dated 2009).
